The subject of experiment [1] is cortical axons collapses triggered by Sema3A. As to the kind of experiment: Cortical axons collapses triggered by Sema3A in neocortex explants. In kind it is cell-based, mouse. The conditions noted are these: peptide 10^−8 M, Sema3A 100 ng/ml. On the procedure: The inhibitory axon growth property of Sema 3A is supposed to be linked to its induction capacity of growth cone collapses. To investigate the effect of the pTM-NRP1 peptide on the Sema 3A functional properties, the growth of cortical neurons was analyzed in the presence or not of Sema 3A and of pTM-NRP1 or pTM-NRP1^mut (NRP1 TM with a triple G→V mutation) peptides.
Laminine/Poly-L-Lysine substrates have been made by adding 980 μL of Gey's balanced salt solution (GBSS, SIGMA) to 10 μL laminine (1 mg/ml, SIGMA) and to 10 μL poly-L-Lysine (10 mg/ml, SIGMA). Sterile coverslips have been placed in a big dish and added with substrate (100 μL). Then, ‘sandwiches’ have been prepared by covering each coverslip with a second one. After an incubation for at least 30 min at 37° C. under 5% CO2 in air, ‘sandwiches’ have been opened and each coverslip has been rinsed with deionized water. Explants have been cultured on dried coverslips.
Neocortex fragments prepared from E15 mouse embryos (E1 determined as the first day of embryonic development by detection of vaginal plug) have been transferred on a tissue chopper disk. Tissue have been cut into 200×200 μm by rotating the disk by 90° after the first cut. Cortex cubes have been collected with a spatula and put into culture medium in a Petri dish. Two coverslips with substrate have been placed in a small Petri dish (50 mm diameter, FALCON). After adding 750 μl of culture medium, the coverslips should stay in the incubator for at least 10 minutes. Using a dissecting microscope, forty to fifty cortical explants have been collected in 20 μl culture medium and carefully placed onto the coverslips. After 15 min at room temperature, most explants have adhered to their substrate. 2250 μl of culture medium have been slowly added to each dish. Then, explants cultures have been kept at 37° C. under 5% CO2 in air.
A radial outgrowth could be seen after 18-24 h in culture, and individual fibres and growth cones could have therefore been analyzed. Products tested on growth cones have been directly added in culture medium for 2 h: • purified Sema3A (100 ng/ml) prepared from conditioned medium of HEK293 cells stably expressing Sema3A. The purification was performed by using the anti-Flag system, SIGMA) • pTM-NRP1 (10^−8, 10^−9, 10^−10 and 10^−11 M), • 10^−8M mpTM-NRP1, • 10^−8M pTM-ErbB2w (SEQ ID NO. 18).
After incubation, 4% formaldehyde has been directly added in culture medium (v/v) for 15min. Then the solution has been removed and replaced by 4% formaldehyde for 15 min.

Experiment [2] relates to COS-1 cells expressing NRP1 and Plexin-A1. As to the kind of experiment: COS cellular collapses triggered by Sema3A. In kind it is cell-based. The note with it: peptide 10^−9 M, 1 hour pre-incubation, Sema 3A 4 hours. The procedure:
Nevertheless, the artificial expression of NRP1 and Plexin-A1 in COS cells allows Sema 3A to trigger cellular collapses. To investigate the effect of the pTM-NRP1 peptide on the Sema3A functional properties, the shape of COS cells expressing NRP1 and Plexin-A1 was analyzed in the presence or not of Sema 3A and of pTM-NRP1 or pTM-NRP1^mut peptide.
COS-1 cells have been transfected by 1 μg of pBK-CMV (STRATAGENE) plasmids containing NRP1 and plexin-A1 coding sequences (provided by Pr. PUSCHEL; MUNSTER Universitat, Germany) with LIPOFECTAMINE 2000 (IN VITROGEN) according to the manufacturer's instructions in 6-well plates. Stably COS-1 transfected cells have been selected with 0.7% geneticine. Stably transfected COS-1 cells have been cultured on 12-well plates with previously poly-L-lysine-coated glass coverslips. Cells have been then incubated 1 hour with pTM-NRP1 or pTM-NRP1^mut peptide (10^−9M) at 37° C. The culture medium has been then removed and replaced by conditioned medium of HEK cells stably transfected or not with a construction expressing Sema 3A (100 μl/ml D-MEM) for 4 hours at 37° C. Finally, cells have been fixed with 2% formaldehyde for 30 minutes followed by 15 minutes in formaldehyde 4%. For each condition tested, about 400 cells have been analyzed.

The subject of experiment [3] is VEGF165 signalling in C6 cells. Kind of experiment: VEGF165-induced migration of C6 tumour cell aggregates in 3D matrix (plasma clot). In kind it is cell-based. The note with it: VEGF165 50 ng/ml, peptide 10^−8 M. The procedure:
NRP1 is a receptor of VEGF (NEUFELD et al., Adv. Exp. Med. Biol., vol. 515, p: 81-90, 2002). We therefore verified that pTM-NRP1 can antagonize VEGF signalling in C6 cells. To this end, C6 tumour cell aggregates prepared as previously described (see BAGNARD et al., 1998; and NASARRE et al., Neoplasia, vol. 7, p: 180-189, 2005) were grown in the 3D matrix (plasma clot) and treated with VEGF165.

Experiment [4] has as its target T1, NRP1 (Rattus norvegicus, UniProt Q9QWJ9).
T1 construct: Rat C6 glioma cells, which express semaphorin receptors; endogenous in cells; host or cells: rat C6 glioma cells
Kind of experiment: AP-Sema3A binding to its receptor NRP1 on C6 glioma cells (luminescence). The conditions noted are these: peptide 10^−12 M to 10^−10 M, 1 hour. The procedure: In order to investigate the NRP1 transmembrane domain role in the linkage NRP1-class III semaphorins, the binding of the ligand Sema3A to its receptor NRP1 on glioma cells was measured in the presence or not of the transmembrane domain peptide of NRP1 (pTM-NRP1 peptide; SEQ ID NO. 1) or of a mutated peptide (mpTM-NRP1; SEQ ID NO. 20, […]). These pTM-NRP1 Peptides have been synthesized by automatic peptidic synthesis (Fmoc chemistry, APPLIED SYSTEM), and analyzed by mass spectrometry. Peptides purity has been estimated by RP-HPLC (BECKMAN) as higher than 90%.
Rat C6 glioma cells, which express semaphorin receptors, has been used to determine the binding capacity of AP-Sema3A, a secreted alkaline phosphatase version of Sema 3A (ADAMS et al., 1997, BAGNARD et al., 1998). These cells were grown and plated in MEM medium (GIBCO) with 10% foetal calf serum (PERBIO), glutamine 0.5 mM (GIBCO) and antibiotics: 100 U/ml penicillin and 100 μg/ml streptomycin (SIGMA).
C6 Cells were cultured in 96-well plates and incubated with or without freshly diluted pTM-NRP1 or pTM-NRP1^mut peptides (10^−12 M to 10^−10 M) for 1 hour at 37° C. The culture medium has been then replaced by conditioned medium of HEK cells stably transfected with a construction expressing AP-Sema 3A (ADAMS et al., EMBO J., vol. 16(20), p: 6077-86, 1997; BAGNARD et al., 1998). Conditioned medium from HEK non transfected cells has been used as an internal control. The pTM-NRP1 Peptide has been synthesized by automatic peptidic synthesis (Fmoc chemistry, APPLIED SYSTEM), and analyzed by mass spectrometry. Peptides purity has been estimated by RP-HPLC (BECKMAN) as higher than 90%, the cells have been washed with PBS and incubated with 50 μl of alkaline phosphatase luminescent substrate (AMERSHAM). The luminescence has been read after 15 minutes with MICROLUMAT PLUS system (BERTHOLD TECHNOLOGIES) according to the manufacturer's instructions. Experiments were done 4 times for each peptide.

Experiment [5] deals with T2, NRP1 (Homo sapiens, UniProt O14786).
T2 construct: mutations were introduced into the TM domain of a full length NRP1; expressed in transfected cells; host or cells: COS-1 cells, pBK-CMV plasmid (cDNA provided by Pr. Puschel)
T2 sequence (O14786 22-923): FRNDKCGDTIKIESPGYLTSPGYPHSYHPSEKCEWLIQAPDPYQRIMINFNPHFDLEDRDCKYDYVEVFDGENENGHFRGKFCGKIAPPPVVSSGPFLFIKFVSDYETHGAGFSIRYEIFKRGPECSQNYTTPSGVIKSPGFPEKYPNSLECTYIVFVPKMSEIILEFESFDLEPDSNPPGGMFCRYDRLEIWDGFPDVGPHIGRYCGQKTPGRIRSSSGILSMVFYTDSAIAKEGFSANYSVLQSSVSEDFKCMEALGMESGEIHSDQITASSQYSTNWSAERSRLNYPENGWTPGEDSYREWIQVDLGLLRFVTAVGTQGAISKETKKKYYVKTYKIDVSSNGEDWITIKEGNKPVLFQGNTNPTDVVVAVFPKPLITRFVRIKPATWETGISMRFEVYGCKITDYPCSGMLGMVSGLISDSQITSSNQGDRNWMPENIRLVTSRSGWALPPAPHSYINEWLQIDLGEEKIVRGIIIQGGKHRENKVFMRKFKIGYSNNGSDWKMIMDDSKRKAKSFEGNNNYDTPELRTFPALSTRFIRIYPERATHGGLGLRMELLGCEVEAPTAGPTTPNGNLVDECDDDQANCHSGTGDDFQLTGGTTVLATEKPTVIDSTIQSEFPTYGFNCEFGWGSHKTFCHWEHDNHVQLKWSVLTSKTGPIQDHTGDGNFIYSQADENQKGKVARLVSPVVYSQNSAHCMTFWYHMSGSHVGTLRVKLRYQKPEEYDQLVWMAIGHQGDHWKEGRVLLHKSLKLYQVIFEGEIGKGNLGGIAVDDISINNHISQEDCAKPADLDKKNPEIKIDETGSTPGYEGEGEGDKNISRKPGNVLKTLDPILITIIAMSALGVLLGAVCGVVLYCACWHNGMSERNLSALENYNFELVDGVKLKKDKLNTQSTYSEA
Kind of experiment: AP-Sema3A binding to NRP1-expressing COS cells (optical density per cell). The note with it: peptide 10^−9 M, 1 hour pre-incubation. On the procedure:
NRP1 expressing COS cells were incubated with AP-Sema3A, a fusion protein of Sema3A and the secreted alkaline phosphatase (BAGNARD et al., 1998).
Wild-type COS cells or NRP1-expressing COS cells (COS-NRP1) were cultured on 12-wells plates on poly-L-lysine-coated glass coverslips (0.005 mg/ml). After one-hour incubation with pTM-NRP1 or pTM-NRP1^mut (10^−9M) in serum-free medium at 37° C., the culture medium was replaced by conditioned medium containing alkaline phosphatase-coupled Sema3A (AP-Sema3A; BAGNARD et al., 1998) obtained from AP-Sema3A stably expressing HEK cells for 90 mn. Conditioned medium without semaphorin served as a control (obtained from non-transfected HEK). Cells were washed three times with PBS and fixed in 4% formaldehyde before transfer in a new dish. After three washes in PBS, the plate was warmed for 50 mn at 65° C. Cells were subsequently incubated with 1 ml of alkaline phosphatase substrate (NBT/BCIP, SIGMA) in the dark. After 45 mn, substrate was removed and glass coverslips were rinsed. Pictures were acquired with a conventional microscope and analyzed with AxioVision LE Zeiss software. For each condition tested, about 60 cells were analyzed to determine binding levels as a function of optical density. Statistical analysis was performed by using a Student's t test.

Here are results for two sequences from patent US8956622B2, “Peptidic antagonists of class III semaphorins/neuropilins complexes” (INSERM—Institut National de la Sante et de la Recherche …, priority 2005, dated 2015).

Take “SIISAVVGILLVVVLGVVFGILI [ErbB2 peptide, reference compound]”: in experiment [1], the “effect on cortical axons collapses triggered by Sema3A” value was “no effect”.

As to “ILITIIAMSALVVLLVAVCVVVLYRKR [pTM-NRP1^mut, reference compound]”, in experiment [2], the “effect on cellular collapses of COS-1 cells triggered by Sema 3A” value was “did not block”. Moreover, the “VEGF165-dependent C6 cells migration out of aggregates” value in experiment [3] was “not able to block”. The “binding of AP-Sema3A to its receptor NRP1 on C6 cells” value on NRP1 [4] is given as “did not block”. The “binding of AP-Sema3A to NRP1-expressing COS cells” value at NRP1 [5] is recorded as “did not block”. Besides, the “effect on cortical axons collapses triggered by Sema3A” value in experiment [1] is reported as “did not block”.
